{"source": "patent US20250135002A1", "about": "“COMPOSITIONS FOR AND METHOD OF EFFECTING TUMOR CELL DEATH” (Duke University, priority 2022, published 2025)", "tested_on": "c1498 murine AML (Acute Myeloid Leukemia) cells", "experiment": "Survival of FACS-sorted phosphatidylserine-positive AML cells after cytarabine treatment", "type": "cell-based", "conditions": "Mus musculus, 1 μM cytarabine for 24 hrs, live cell number estimated from growth rates", "excerpt": "FIG. 1A-FIG. 1C show the survival of phosphatidylserine-expressing AML cells. […] The rectangles indicate the sorted cells. […] About 1000 each of the sorted cells were placed into multi-well plates. When the cells reached sufficient numbers, they were counted at different time points to measure their growth rates. The growth rates were then used to estimate the initial live cell numbers. The following formula was used to calculate the minimal initial live cell numbers: Minimal initial cell number=Total cell population/[…] (days to reach the current cell number).\nTo determine whether cells expressing high-level of PS expression on the cell surface were destined to die, the viability of c1498 murine AML (Acute Myeloid Leukemia) cells treated with cytarabine (part of a classical chemotherapy regimen for human AML) was examined.\nSpecifically, whether PS-expressing acute myelocytic leukemia (AML) cells survived was examined. FACS was used to identify and sort c1498 cells treated with 1 μM cytarabine (for 24 hrs) and with high PS-expression. The sorted cells were then seeded into 6-well dishes and the ability to survive and proliferate was measured. FIG. 1A-FIG. 1B). […]", "note": "Where two headings read alike, the source gives them in different places."}
{"smiles": "Nc1ccn([C@@H]2O[C@H](CO)[C@@H](O)[C@@H]2O)c(=O)n1", "note": "[cytarabine]", "values": [{"measurement": "viability at 1 µM", "setting": "FACS-sorted PS+7AAD+ (late apoptotic) cells, read-out: proportion of cytarabine-treated PS+7AAD+ c1498 cells that remained viable and could proliferate", "value": "~8", "unit": "%"}, {"measurement": "viability at 1 µM", "setting": "FACS-sorted PS+7AAD- (early apoptotic) cells, read-out: proportion of cytarabine-treated PS+7AAD- c1498 cells that remained viable and could proliferate", "value": "~25", "unit": "%"}]}
